Measurements: US8093249B2, “Pyrazolo[1,5-A]pyrimidine-carbonyl-piperazine derivatives” (Convergence Pharmaceuticals Limited, priority 2008, dated 2012)

Each molecule was assayed against T1, hCaV2.2 (Homo sapiens, UniProt Q00975) (assay: hCaV2.2 assay (IonWorks planar array electrophysiology, HEK293 stable cell line)). Conditions: inhibition of current elicited by the 1st depolarizing pulse by 50%, HEK293 cells expressing human CaV2.2 α/β3/α2δ1; read-out: mean pIC50 value (tonic pIC50) (converted).
T1 construct: expressed in transfected cells; plasmids pCIN5-hCaV2.2, pCIH-hCaV β3, pCIP-α2δ1
T1 sequence (Q00975 whole entry): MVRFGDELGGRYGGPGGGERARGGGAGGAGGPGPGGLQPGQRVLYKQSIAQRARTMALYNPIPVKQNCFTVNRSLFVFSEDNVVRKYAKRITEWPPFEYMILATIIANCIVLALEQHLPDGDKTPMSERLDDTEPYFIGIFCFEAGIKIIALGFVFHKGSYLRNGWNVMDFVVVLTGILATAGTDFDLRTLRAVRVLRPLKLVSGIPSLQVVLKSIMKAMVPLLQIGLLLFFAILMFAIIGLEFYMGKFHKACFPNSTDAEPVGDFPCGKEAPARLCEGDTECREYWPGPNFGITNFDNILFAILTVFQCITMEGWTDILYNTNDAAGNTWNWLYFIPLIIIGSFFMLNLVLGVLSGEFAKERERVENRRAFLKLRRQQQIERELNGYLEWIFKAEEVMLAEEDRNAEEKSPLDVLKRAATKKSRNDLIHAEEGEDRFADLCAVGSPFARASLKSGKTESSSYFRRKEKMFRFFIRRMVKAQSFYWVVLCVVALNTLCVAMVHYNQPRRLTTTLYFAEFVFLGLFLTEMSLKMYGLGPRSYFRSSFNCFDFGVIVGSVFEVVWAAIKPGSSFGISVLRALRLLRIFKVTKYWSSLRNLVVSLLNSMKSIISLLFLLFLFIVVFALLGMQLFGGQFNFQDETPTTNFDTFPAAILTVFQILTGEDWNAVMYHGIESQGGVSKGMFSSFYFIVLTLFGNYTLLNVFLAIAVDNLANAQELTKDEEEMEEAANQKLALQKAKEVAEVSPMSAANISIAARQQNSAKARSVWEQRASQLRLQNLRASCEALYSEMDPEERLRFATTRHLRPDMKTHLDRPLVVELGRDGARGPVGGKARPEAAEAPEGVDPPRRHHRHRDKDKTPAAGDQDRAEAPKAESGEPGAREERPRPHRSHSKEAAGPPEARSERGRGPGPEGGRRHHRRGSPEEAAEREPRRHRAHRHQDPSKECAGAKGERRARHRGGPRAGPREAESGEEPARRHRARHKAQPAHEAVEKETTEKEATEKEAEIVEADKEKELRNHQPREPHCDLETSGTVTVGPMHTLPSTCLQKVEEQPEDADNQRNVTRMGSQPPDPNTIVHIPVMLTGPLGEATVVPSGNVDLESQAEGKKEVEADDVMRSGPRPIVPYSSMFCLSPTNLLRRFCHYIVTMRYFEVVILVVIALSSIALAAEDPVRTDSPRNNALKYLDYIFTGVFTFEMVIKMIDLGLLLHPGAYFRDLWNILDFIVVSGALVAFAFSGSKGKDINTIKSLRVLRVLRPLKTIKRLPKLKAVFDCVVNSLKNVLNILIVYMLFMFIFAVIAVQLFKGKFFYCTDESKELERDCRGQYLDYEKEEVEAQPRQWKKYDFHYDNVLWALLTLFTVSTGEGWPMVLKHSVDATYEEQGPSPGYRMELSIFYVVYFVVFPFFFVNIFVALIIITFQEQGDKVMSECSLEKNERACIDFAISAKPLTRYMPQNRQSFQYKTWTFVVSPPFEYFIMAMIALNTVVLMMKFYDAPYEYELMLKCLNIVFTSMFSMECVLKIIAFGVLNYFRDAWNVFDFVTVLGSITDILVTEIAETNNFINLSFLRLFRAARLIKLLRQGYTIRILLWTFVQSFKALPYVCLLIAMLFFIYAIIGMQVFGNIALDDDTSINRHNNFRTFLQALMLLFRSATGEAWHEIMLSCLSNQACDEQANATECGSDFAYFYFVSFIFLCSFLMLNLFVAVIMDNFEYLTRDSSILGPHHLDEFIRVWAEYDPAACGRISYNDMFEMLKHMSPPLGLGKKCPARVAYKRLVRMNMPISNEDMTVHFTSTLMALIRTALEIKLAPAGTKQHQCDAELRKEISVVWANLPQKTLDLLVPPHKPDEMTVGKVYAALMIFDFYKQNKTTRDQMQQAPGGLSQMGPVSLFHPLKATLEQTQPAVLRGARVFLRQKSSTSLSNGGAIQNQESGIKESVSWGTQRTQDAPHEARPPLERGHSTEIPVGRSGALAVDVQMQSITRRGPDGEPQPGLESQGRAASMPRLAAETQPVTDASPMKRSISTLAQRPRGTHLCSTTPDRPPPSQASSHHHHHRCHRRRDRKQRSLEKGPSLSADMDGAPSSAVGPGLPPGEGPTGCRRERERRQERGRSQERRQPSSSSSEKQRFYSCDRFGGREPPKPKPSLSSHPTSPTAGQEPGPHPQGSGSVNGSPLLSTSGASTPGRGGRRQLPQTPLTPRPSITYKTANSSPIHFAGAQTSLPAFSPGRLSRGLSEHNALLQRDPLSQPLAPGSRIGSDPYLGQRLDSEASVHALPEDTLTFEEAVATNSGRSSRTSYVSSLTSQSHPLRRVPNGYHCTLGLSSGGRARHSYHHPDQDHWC
T1 sequence (P54284 whole entry partner): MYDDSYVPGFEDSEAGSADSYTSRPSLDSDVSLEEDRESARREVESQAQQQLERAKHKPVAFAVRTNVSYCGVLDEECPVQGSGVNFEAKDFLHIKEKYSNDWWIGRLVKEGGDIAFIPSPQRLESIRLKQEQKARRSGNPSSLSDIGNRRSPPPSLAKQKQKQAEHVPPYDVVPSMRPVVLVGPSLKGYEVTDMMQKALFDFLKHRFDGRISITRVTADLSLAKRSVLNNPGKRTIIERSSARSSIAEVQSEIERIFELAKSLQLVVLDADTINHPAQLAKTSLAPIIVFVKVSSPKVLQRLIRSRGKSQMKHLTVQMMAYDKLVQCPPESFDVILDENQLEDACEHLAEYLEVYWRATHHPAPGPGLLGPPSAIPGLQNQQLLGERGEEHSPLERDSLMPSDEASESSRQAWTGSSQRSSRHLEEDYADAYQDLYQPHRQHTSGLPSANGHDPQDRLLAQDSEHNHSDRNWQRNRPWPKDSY
T1 sequence (P54289 25-946 partner limits assumed): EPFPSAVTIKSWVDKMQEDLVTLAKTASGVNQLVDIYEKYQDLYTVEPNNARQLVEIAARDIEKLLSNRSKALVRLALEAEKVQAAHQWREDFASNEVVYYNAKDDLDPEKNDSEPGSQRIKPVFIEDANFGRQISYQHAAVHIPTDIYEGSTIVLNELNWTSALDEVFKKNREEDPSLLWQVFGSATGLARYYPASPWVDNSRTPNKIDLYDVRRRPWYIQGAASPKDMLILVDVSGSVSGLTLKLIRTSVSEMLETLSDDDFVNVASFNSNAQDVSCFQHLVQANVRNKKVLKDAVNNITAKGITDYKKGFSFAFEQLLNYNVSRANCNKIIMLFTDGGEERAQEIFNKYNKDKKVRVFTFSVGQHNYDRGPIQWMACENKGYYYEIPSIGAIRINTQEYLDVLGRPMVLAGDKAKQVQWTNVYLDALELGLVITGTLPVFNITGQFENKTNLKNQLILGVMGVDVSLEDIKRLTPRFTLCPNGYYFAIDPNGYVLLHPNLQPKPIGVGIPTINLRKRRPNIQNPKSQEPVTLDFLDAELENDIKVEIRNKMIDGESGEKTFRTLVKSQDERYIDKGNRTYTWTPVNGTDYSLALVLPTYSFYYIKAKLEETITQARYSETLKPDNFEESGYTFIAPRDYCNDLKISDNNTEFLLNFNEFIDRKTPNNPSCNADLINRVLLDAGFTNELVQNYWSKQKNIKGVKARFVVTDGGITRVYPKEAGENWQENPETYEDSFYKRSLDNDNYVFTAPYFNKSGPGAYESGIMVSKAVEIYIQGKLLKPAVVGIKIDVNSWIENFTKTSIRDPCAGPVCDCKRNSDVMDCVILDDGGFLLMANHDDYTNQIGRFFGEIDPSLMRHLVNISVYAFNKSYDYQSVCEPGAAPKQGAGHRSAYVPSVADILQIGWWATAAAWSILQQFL
T1 sequence (P54289 947-1103 partner limits assumed): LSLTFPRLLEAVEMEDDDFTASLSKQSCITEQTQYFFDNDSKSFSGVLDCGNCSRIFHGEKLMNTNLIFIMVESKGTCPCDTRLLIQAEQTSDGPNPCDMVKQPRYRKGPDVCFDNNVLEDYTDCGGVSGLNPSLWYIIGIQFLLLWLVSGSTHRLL
Format: cell-based
Description: Compounds of the invention may be tested for in vitro biological activity in the hCaV2.2 assay in accordance with the following studies:
Stable cell lines expressing the human CaV2.2 α (α1B) subunit, along with the human β3 and α2δ1 auxillary subunits were created following sequential transfection and selection of human embryonic kidney (HEK293) cells. […] Initially HEK293 cells were transfected with two plasmid vectors for expression of the hCaV2.2 α subunit (pCIN5-hCaV2.2 which carries a neomycin resistance marker) and the hCaV β3 subunit (pCIH-hCaV β3 which carries a hygromycin resistance marker). […] These clonal cell lines were assessed for Cav2.2 α/β3-mediated current expression using the IonWorks planar array electrophysiology technology (described below). […] Expression of all three subunits within this cell line was continuously maintained by the inclusion of G418 (0.4 mg ml^−1), hygromycin (0.1 mg ml^−1) and puromycin (0.62 μg ml^−1). Cells were maintained at 37° C. in a humidified environment containing 5% CO2 in air.
Cells were grown to 30-60% confluence in T175 flasks and maintained at 30° C. for 24 hours prior to recording. […] Lifted cells were suspended in 10 ml of extracellular buffer. Cell suspension was then placed into a 15 ml tube and centrifuged for 2 minutes at 700 rpm. After centrifugation, the supernatant was removed and the cell pellet was resuspended in 4.5 ml of extracellular solution.
Currents were recorded at room temperature (21-23° C.) using the IonWorks planar array electrophysiology technology (Molecular Devices Corp.). Stimulation protocols and data acquisition were carried out using a microcomputer (Dell Pentium 4). In order to determine planar electrode hole resistances (Rp), a 10 mV, 160 ms potential difference was applied across each hole. These measurements were performed before cell addition. After cell addition a seal test was performed prior to antibiotic (amphotericin) circulation to achieve intracellular access. Leak subtraction was conducted in all experiments by applying a 160 ms hyperpolarizing (10 mV) prepulse 200 ms before the test pulses to measure leak conductance. Test pulses stepping from the holding potential (VH) of −90 mV to +10 mV were applied for 20 ms and repeated 10 times at a frequency of 10 Hz. In all experiments, the test pulse protocol was performed in the absence (pre-read) and presence (post-read) of a compound. Pre- and post-reads were separated by a compound addition followed by a 3-3.5 min incubation.
The intracellular solution contained the following (in mM): K-gluconate 120, KCl 20 mM, MgCl2 5, EGTA 5, HEPES 10, adjusted to pH 7.3. Amphotericin was prepared as 30 mg/ml stock solution and diluted to a final working concentration of 0.2 mg ml^−1 in intracellular buffer solution. The extracellular solution contained the following (in mM): Na-gluconate 120, NaCl 20, MgCl2 1, HEPES 10, BaCl2 5, adjusted to pH 7.4.
Finally the compounds were diluted 1:100 in external solution resulting in a final DMSO concentration of 1%.
Paired comparisons between pre-compound and post-compound additions were used to determine the inhibitory effect of each compound. […] In addition the use-dependent inhibitory properties of the compounds were determined by assessing the effect of compounds on the 10th versus 1st depolarizing pulse. The ratio of the 10th over 1st pulse was determined in the absence and presence of drug and the % use-dependent inhibition calculated.
Compounds were tested in the form as described in the Examples. […] Variations in pUD30 and pIC50 values may arise between tests.
With `O=C(c1cnn2cccnc12)N1CCN(S(=O)(=O)c2ccc(C(F)(F)F)cc2)CC1` [Example 1, 3-[(4-{[4-(Trifluoromethyl)phenyl]sulfonyl}-1-piperazinyl)carbonyl]pyrazolo[1,5-a]pyrimidine] the IC50 was ≥ 31.6 µM.
`C[C@H]1CN(S(=O)(=O)c2ccc(C(F)(F)F)cc2)CCN1C(=O)c1cnn2cccnc12` [Example 2, 3-[((2S)-2-Methyl-4-{[4-(trifluoromethyl)phenyl]sulfonyl}-1-piperazinyl)carbonyl]pyrazolo[1,5-a]pyrimidine] was tested, and the IC50 was ≥ 10 µM.
`C[C@@H]1CN(C(=O)c2cnn3cccnc23)CCN1S(=O)(=O)c1ccc(C(F)(F)F)cc1` [Example 3, 3-[((3R)-3-Methyl-4-{[4-(trifluoromethyl)phenyl]sulfonyl}-1-piperazinyl)carbonyl]pyrazolo[1,5-a]pyrimidine] was tested, and the IC50 was ≥ 31.6 µM.
`C[C@H]1CN(C(=O)c2cnn3cccnc23)CCN1S(=O)(=O)c1ccc(C(F)(F)F)cc1` [Example 4, 3-[((3S)-3-Methyl-4-{[4-(trifluoromethyl)phenyl]sulfonyl}-1-piperazinyl)carbonyl]pyrazolo[1,5-a]pyrimidine] was tested, and the IC50 was ≥ 31.6 µM.
With `Cc1cc(C#N)ccc1S(=O)(=O)N1CCN(C(=O)c2cnn3cccnc23)[C@@H](C)C1` [Example 5, 3-Methyl-4-{[(3S)-3-methyl-4-(pyrazolo[1,5-a]pyrimidin-3-ylcarbonyl)-1-piperazinyl]sulfonyl}benzonitrile] the IC50 was ≥ 31.6 µM.
For `Cc1cnc2c(C(=O)N3CCN(S(=O)(=O)c4ccc(C(F)(F)F)cc4)CC3)cnn2c1` [Example 6, 6-Methyl-3-[(4-{[4-(trifluoromethyl)phenyl]sulfonyl}-1-piperazinyl)carbonyl]pyrazolo[1,5-a]pyrimidine], the IC50 was ≥ 31.6 µM.
`C[C@@H]1CN(S(=O)(=O)c2ccc(C(F)(F)F)cc2)CCN1C(=O)c1cnn2cccnc12` [Example 7, 3-[((2R)-2-Methyl-4-{[4-(trifluoromethyl)phenyl]sulfonyl}-1-piperazinyl)carbonyl]pyrazolo[1,5-a]pyrimidine] was tested, and the IC50 was ≥ 31.6 µM.
In the case of `O=C(c1cnn2cccnc12)N1CCN(S(=O)(=O)c2ccc(OC(F)(F)F)cc2)CC1` [Example 8, 3-{[4-({4-[(trifluoromethyl)oxy]phenyl}sulfonyl)-1-piperazinyl]carbonyl}pyrazolo[1,5-a]pyrimidine], the IC50 is reported as ≥ 31.6 µM.
In the case of `C[C@H]1CN(S(=O)(=O)c2ccc(C(F)(F)F)cc2)CCN1C(=O)c1cnn2cc(F)cnc12` [Example 9, 6-Fluoro-3-[((2S)-2-methyl-4-{[4-(trifluoromethyl)phenyl]sulfonyl}-1-piperazinyl)carbonyl]pyrazolo[1,5-a]pyrimidine], the IC50 is reported as ≥ 10 µM.
`C[C@H]1CN(S(=O)(=O)c2ccc(OC(F)(F)F)cc2)CCN1C(=O)c1cnn2cccnc12` [Example 11, 3-{[(2S)-2-methyl-4-({4-[(trifluoromethyl)oxy]phenyl}sulfonyl)-1-piperazinyl]carbonyl}pyrazolo[1,5-a]pyrimidine] was tested, and the IC50 was ≥ 31.6 µM.
In the case of `Cc1cc(C)n2ncc(C(=O)N3CCN(S(=O)(=O)c4ccc(C(F)(F)F)cc4)CC3)c2n1` [Example 14, 5,7-dimethyl-3-[(4-{[4-(trifluoromethyl)phenyl]sulfonyl}-1-piperazinyl)carbonyl]pyrazolo[1,5-a] pyrimidine], the IC50 is reported as ≥ 31.6 µM.
In the case of `C[C@H]1CN(C(=O)c2cnn3cccnc23)CCN1S(=O)(=O)c1ccc(OC(F)(F)F)cc1` [Example 15, 3-{[(3S)-3-methyl-4-({4-[(trifluoromethyl)oxy]phenyl}sulfonyl)-1-piperazinyl]carbonyl}pyrazolo[1,5-a] pyrimidine], the IC50 is reported as ≥ 31.6 µM.
With `Cc1cc(C#N)ccc1S(=O)(=O)N1CCN(C(=O)c2cnn3cc(Cl)cnc23)[C@@H](C)C1` [Example 16, 4-({(3S)-4-[(6-chloropyrazolo[1,5-a]pyrimidin-3-yl)carbonyl]-3-methyl-1-piperazinyl}sulfonyl)-3-methylbenzonitrile] the IC50 was ≥ 10 µM.
With `Cc1ccc(C(F)(F)F)cc1S(=O)(=O)N1CCN(C(=O)c2cnn3cccnc23)[C@@H](C)C1` [Example 18, 3-[((2S)-2-methyl-4-{[2-methyl-5-(trifluoromethyl)phenyl]sulfonyl}-1-piperazinyl)carbonyl]pyrazolo[1,5-a] pyrimidine] the IC50 was ≥ 31.6 µM.
`Cc1ccc(C(F)(F)F)cc1S(=O)(=O)N1CCN(C(=O)c2cnn3cccnc23)CC1` [Example 19, 3-[(4-{[2-methyl-5-(trifluoromethyl)phenyl]sulfonyl}-1-piperazinyl)carbonyl]pyrazolo[1,5-a] pyrimidine] was tested, and the IC50 was ≥ 31.6 µM.
With `Cc1nn2cccnc2c1C(=O)N1CCN(S(=O)(=O)c2ccc(C(F)(F)F)cc2)C[C@@H]1C` [Example 20, 2-methyl-3-[((2S)-2-methyl-4-{[4-(trifluoromethyl)phenyl]sulfonyl}-1-piperazinyl)carbonyl]pyrazolo[1,5-a] pyrimidine] the IC50 was ≥ 10 µM.
`C[C@@H]1CN(C(=O)c2cnn3cccnc23)CCN1S(=O)(=O)c1ccc(OC(F)(F)F)cc1` [Example 21, 3-{[(3R)-3-methyl-4-({4-[(trifluoromethyl)oxy]phenyl}sulfonyl)-1-piperazinyl]carbonyl}pyrazolo[1,5-a] pyrimidine] was tested, and the IC50 was ≥ 31.6 µM.
With `C[C@@H]1CN(S(=O)(=O)c2ccc(OC(F)(F)F)cc2)CCN1C(=O)c1cnn2cccnc12` [Example 22, 3-{[(2R)-2-methyl-4-({4-[(trifluoromethyl)oxy]phenyl}sulfonyl)-1-piperazinyl]carbonyl}pyrazolo[1,5-a] pyrimidine] the IC50 was ≥ 31.6 µM.
With `Cc1cnc2c(C(=O)N3CCN(S(=O)(=O)c4ccc(C#N)cc4C)C[C@@H]3C)cnn2c1` [Example 23, 3-methyl-4-({(3S)-3-methyl-4-[(6-methylpyrazolo[1,5-a]pyrimidin-3-yl)carbonyl]-1-piperazinyl}sulfonyl)benzonitrile] the IC50 was ≥ 31.6 µM.
In the case of `Cc1cc(C#N)ccc1S(=O)(=O)N1CCN(C(=O)c2c(C)nn3cccnc23)[C@@H](C)C1` [Example 24, 3-methyl-4-({(3S)-3-methyl-4-[(2-methylpyrazolo[1,5-a]pyrimidin-3-yl)carbonyl]-1-piperazinyl}sulfonyl)benzonitrile], the IC50 is reported as ≥ 31.6 µM.

Same assay, conditions: mean pIC50 value (tonic pIC50), inhibition of current elicited by the 1st depolarizing pulse by 50%, HEK293 cells expressing human CaV2.2 α/β3/α2δ1
For `Cc1cc(C#N)ccc1S(=O)(=O)N1CCN(C(=O)c2cnn3cc(F)cnc23)[C@@H](C)C1` [Example 10, 4-({(3S)-4-[(6-fluoropyrazolo[1,5-a]pyrimidin-3-yl)carbonyl]-3-methyl-1-piperazinyl}sulfonyl)-3-methylbenzonitrile], the IC50 was ≥ 31.6 µM.
